The text below walks through data of patent EP0612730A1, “O-aryl ethers of morphinans” (F. HOFFMANN-LA ROCHE AG, priority 1993, dated 1994).

Structures can show the parent of a compound that is named as a salt.

One test concerns cell suspensions prepared from embryonic rat cortices. Put plainly: Acute glutamate neurotoxicity in cortical cell cultures (lactate dehydrogenase release). To be noted: embryonic rat cortical cultures 8-12 days in vitro, glutamate for 5 to 30 min at room temperature, LDH in supernatant after overnight at 37°C. It counts as cell-based. As to the method: 2. Acute glutamate neurotoxicity
Single cell suspensions were prepared from embryonic rat cortices by digestion with dispase (2.4 U/ml) and subsequent trituration with fire polished Pasteur pipettes. The cells were then plated on poly-D-lysine coated microtiter plates (96 well/plate, 10⁵ cells/well) in a total volume of 100 µl essential medium supplemented with 10% horse serum and penicillin/streptomycin . Five days later, non-neuronal cell division was halted by exposure to […] combined with a 50% exchange of culture medium. The cultures were used for neurotoxicity assays from 8-12 days in vitro. Acute glutamate toxicity was performed as described in J. Koh et al. in Neurosci. 8, 1988, 185-196, in […] of a control salt solution [CSS: 120 mM NaCl, 5.4 mM KCl, 0.8 mm MgCl₂, 1.8 mM CaCl₂, 25 mM Tris HCl (pH 7.4 at 25°C) and 15 mM glycose] with […] glutamate for 5 to 30 min at room temperature with or without addition of substances to be tested.After washing, the cultures were maintained in 100 µl CSS overnight at 37°C. For quantitation of neurodegeneration, lactate dehydrogenase was measured in the cell culture supernatant as described by J.G. Klingman et al. in Neurosci. Meth. 31, 1990, 47-51. […] From dose response curves, IC₅₀ values were calculated.
As a reminder, the IC50 is the midpoint of a concentration-inhibition curve. Lower therefore signals inhibition by little substance. The compound `CN1CC[C@@]23CCCC[C@@H]2[C@@H]1Cc1ccc(Oc2ncccc2N)cc13` [2 HCl] displayed a half-maximal inhibitory concentration (IC50) of 14 µM.
For `CN1CC[C@]23CCCC[C@H]2[C@H]1Cc1ccc(Oc2ccccn2)cc13` [Example 2, (+)-3-(2-pyridyloxy)-N-methyl-morphinan], 4 µM corresponded to half-maximal inhibition (IC50).
Same read-out and setting: for `CC(C)(CO)N1CC[C@]23CCCC[C@H]2[C@H]1Cc1ccc(Oc2ccccn2)cc13` [Example 18, (+)-β,β-dimethyl-3-(2-pyridinyloxy)morphinan-17-ethanol] the value was 14 µM; for `Cc1cccc(Oc2ccc3c(c2)[C@@]24CCCC[C@H]2[C@@H](C3)NCC4)n1` [Example 22, (+)-3-[6-methyl-(2-pyridinyl)oxy] morphinan], 1 to 2 µM.
The same measure, in the same setting: the result for `CN1CC[C@@]23CCCC[C@@H]2[C@@H]1Cc1ccc(Oc2cccc(Br)n2)cc13` [Fumarate (the 3rd table, row 5)] reads 1 to 2 µM; that for `CN1CC[C@@]23CCCC[C@@H]2[C@@H]1Cc1ccc(Oc2nccs2)cc13` [Fumarate (the 3rd table, row 10)], 5 µM.
On the same count and under the same terms, for `CN1CC[C@@]23CCCC[C@@H]2[C@@H]1Cc1ccc(Oc2cccnc2)cc13` [Fumarate] the value was 6.4 µM.
For `CN1CC[C@@]23CCCC[C@@H]2[C@@H]1Cc1ccc(Oc2cccs2)cc13` [Fumarate], the IC50 is 13 µM. This IC50 lies about 2-fold higher than the previous one.
Still for that read-out and setting: for `CN1CC[C@@]23CCCC[C@@H]2[C@@H]1Cc1ccc(Oc2ncccc2[N+](=O)[O-])cc13` [Fumarate] the value was 5 µM.
In turn, `CN1CC[C@@]23CCCC[C@@H]2[C@@H]1Cc1ccc(Oc2ncccn2)cc13` [Fumarate] displayed a 50% inhibitory concentration (IC50) of 4 µM. This IC50 and that of the compound before are within 1.5-fold of each other.
Still for that read-out and setting: for `Cc1cccc(Oc2ccc3c(c2)[C@]24CCCC[C@@H]2[C@H](C3)N(C)CC4)n1` [Fumarate] the value was 0.2 µM; for `O=[N+]([O-])c1cccnc1Oc1ccc2c(c1)[C@]13CCCC[C@@H]1[C@H](C2)NCC3` [HCl], 0.5 µM; for `c1ccc(Oc2ccc3c(c2)[C@]24CCCC[C@@H]2[C@H](C3)NCC4)cc1` [HCl], 1 µM.
Compound `c1ccc(Oc2ccc3c(c2)[C@]24CCCC[C@@H]2[C@H](C3)NCC4)nc1` [Maleate] showed an IC50 of 6 µM. Against the preceding compound, the IC50 is about 6-fold higher.
The same measure, in the same setting: for `c1csc(Oc2ccc3c(c2)[C@]24CCCC[C@@H]2[C@H](C3)NCC4)n1` [Maleate] the value was 8 µM.
On the same count and under the same terms, for `CN1CC[C@@]23CCCC[C@@H]2[C@@H]1Cc1ccc(Oc2ccccc2)cc13` [Oxalate] the value was 6 µM.

The next test relates to NMDA receptor. Kind of test: NMDA-induced convulsions in mice (NMDA-induced anticonvulsant test). As to conditions: NMDA 175 mg/kg i.p. 30 min after i.p. test compound (60 min after oral), percent protection = 100 (E-C)/(10-C), dose and route of test compound not given. It counts as in vivo. An excerpt: As indicated above, the compounds of formula I are active as non-competitive NMDA receptor antagonists and are therefore, useful as neuroprotecting agents, for example, in the treatment of injury to central neurons associated with ischemia, hypoxia, hypoglycemia, epilepsy, Huntington's disease or Alzheimer's disease.
1. NMDA-Induced convulsions in mice
Male mice 45-54 days old and weighing 18-30 g are food-deprived for 24 hrs and then assigned in groups of 10 to various treatment conditions. In general, the method of Lehmann et al. described in J. Pharmacol. Exp. Ther. 240, 1987, 737-746, is used. Mice are administered a test compound intraperitoneally and are injected with NMDA (175 mg/kg i.p.) 30 minutes later. If any test compound is administered orally, the NMDA is injected 60 minutes later. NMDA is dissolved in 0.9% saline. Test compounds are likewise dissolved in 0.9% saline or, when necessary, suspended in 5% gum acacia. All injections are made in a volume of 0.2 ml/20 g body weight. […] Results are represented as the number of mice protected at each dose level of a test compound; this gives an indication of the degree of protection at each dose and indicates whether there was a dose level at which complete protection occurred. A formula is used which adjusts for the number of mice "protected" in the control group, since the dose of NMDA used induces convulsions in less than 100 percent of the mice in the control group. The formula used is: percent protection = 100 (E-C)/(10-C), where E is the number of mice protected at the dose of the test compound, C is the number of mice not convulsing in the vehicle control group, and 10 is the number of mice per group. A given dose level of a compound is regarded as being active if this percent protection score is equal to or greater than 50 percent.
Turning to `CC(C)(CO)N1CC[C@]23CCCC[C@H]2[C@H]1Cc1ccc(Oc2ccccn2)cc13` [Example 18, (+)-β,β-dimethyl-3-(2-pyridinyloxy)morphinan-17-ethanol], the “% mice protected” value amounted to 50%.
On the same count and under the same terms, the result for `CN1CC[C@@]23CCCC[C@@H]2[C@@H]1Cc1ccc(Oc2nccs2)cc13` [Fumarate (the 1st table, row 4)] reads 86%.
In the case of `CN1CC[C@@]23CCCC[C@@H]2[C@@H]1Cc1ccc(Oc2cccc(Br)n2)cc13` [Fumarate (the 1st table, row 6)], the “% mice protected” value worked out at 67%.
The same measure, in the same setting: for `CN1CC[C@@]23CCCC[C@@H]2[C@@H]1Cc1ccc(Oc2ccccn2)cc13` [Oxalate] the value was 86%.
